Laboratory results reported in patent publication US20140017336A1, “CO-ADMINISTRATION OF ARSENIC COMPOUNDS AND ANTI-HERPES VIRUS ANTI-VIRALS” (priority 2011, published 2014).
“Also recorded” adds a separate entry of the source.

Experiments:
[1] = system: MUTU1 cells (EBV positive Burkitt's lymphoma-derived); assay: Viable cell count (trypan blue exclusion), MUTU1 cells; type: cell-based, human; settings: 10 nM or 100 nM ATO, 2 and 3 days
[2] = system: A549<EBVBX1>3A cells; assay: Annexin V/propidium iodide viability, EBV infected A549 cells; settings: 4 days
[3] = system: PML NB; type: cell-based, human; settings: 24 hours
[4] = system: EBV immediate early protein Zta; assay: Zta immunofluorescence in EBV infected A549 cells; type: cell-based, Epstein-Barr virus
Method: A549 cells were plated on 8-chambered Lab-Tek slides at 3×10^4 cells per well; chemical treatment began 24 hours after plating. At specified time points, cells were rinsed twice with PBS and fixed in 4% paraformaldehyde (freshly diluted from 16%, Electron Microscopy Science, Hatfield, Pa.) for 10 min at room temperature. The cells were then rinsed twice with PBS and permeabilized with 0.5% Triton™ X100 (Sigma) in PBS for 15 min at room temperature. Primary antibodies were applied at specified concentrations overnight in a humidified chamber at 4° C. Following 3 rinses in PBS, secondary antibodies were diluted 1:500 and applied for 1 hour at room temperature. The chambers were removed and Vectashield® with DAPI (Vector Laboratories, Burlingame, Calif. #H1200) was applied with cover slip mount. […]
To investigate the ability of ATO to disrupt PML NB in EBV infected A549 cells, cells were treated with varying doses of ATO for 24 hours and PML NBs were imaged. […] To assess whether EBV positivity affected PML protein levels, cell fractions from two separate EBV infections (A549<EBV>2C and A549<EBV>3A) and uninfected parental A549 cells were analyzed by western blot. […] To quantify the increase in Zta expression, mRNA isolated from A549<EBVBX1>3A cells treated with varying doses of ATO for 72 hours was analyzed by qRT-PCR. […]

[5] = system: EBV Zta; assay: Western blot of Zta in EBV-negative MUTU cells; type: cell-based, Epstein-Barr virus; settings: 0, 10 nM, 100 nM ATO, day 3
[6] = system: EBNA Cp mRNA; assay: EBNA Cp mRNA expression in LCL<EBV1-13> cells; type: cell-based, Epstein-Barr virus; settings: three days, 10 nM ATO
Method: FIGS. 8A-D. B-cells recently isolated from a patient were infected with EBV, allowed to grow out for several generations (only the EBV-infected cells would be able to grow out), and frozen until use. FIGS. 8A and B. FIGS. 8A and B graph the relative percent of viability of EBV-infected B-cells as just described (LCL<EBV1-13> cells) thawed and grown in one of: media alone (“control”), media and 45 μM ganciclovir (GCV), media and […] arsenic trioxide (ATO), or media and a combination of these concentrations of GCV and ATO. The bars show the relative viability of cells after 2 days of this treatment (“2 D,” FIG. 8A), and at three days (“3 D,” FIG. 8B). FIG. 8C. Epstein-Barr nuclear antigen (“EBNA”) driven by the C promoter (“Cp”) is transcribed only during the latent phase of the virus. FIG. 8C graphs the relative expression of EBNA Cp mRNA of LCL<EBV1-13> cells grown three days (“3 D”) in media alone (“control”), media and 45 μM ganciclovir (GCV), media and 10 nM arsenic trioxide (ATO), or media and a combination of these concentrations of GCV and ATO. […] FIG. 8D. FIG. 8D graphs the relative transcription of the viral immediate early protein Zta mRNA of LCL<EBV1-13> cells grown three days (“3 D”) in media alone (“control”), media and 45 μM ganciclovir (GCV), media and 10 nM arsenic trioxide (ATO), or media and a combination of these concentrations of GCV and ATO. […]

[7] = system: EBV Zta; assay: Western blot of Zta in MUTU1 cells; type: cell-based, Epstein-Barr virus; settings: 0, 10 nM, 100 nM ATO, day 3
[8] = system: EBV Zta protein; type: in vivo, male nude mice; settings: tumors harvested at 21 days of treatment
[9] = system: EBV Zta mRNA; assay: qRT-PCR of Zta mRNA in CNE1<EBV-BX1> cells; type: cell-based, Epstein-Barr virus
[10] = system: LCL<EBV1-13> cells; type: cell-based, human; settings: 45 μM GCV, 1.0 nM ATO

PML NB, sequence (P29590 1-418 limits assumed): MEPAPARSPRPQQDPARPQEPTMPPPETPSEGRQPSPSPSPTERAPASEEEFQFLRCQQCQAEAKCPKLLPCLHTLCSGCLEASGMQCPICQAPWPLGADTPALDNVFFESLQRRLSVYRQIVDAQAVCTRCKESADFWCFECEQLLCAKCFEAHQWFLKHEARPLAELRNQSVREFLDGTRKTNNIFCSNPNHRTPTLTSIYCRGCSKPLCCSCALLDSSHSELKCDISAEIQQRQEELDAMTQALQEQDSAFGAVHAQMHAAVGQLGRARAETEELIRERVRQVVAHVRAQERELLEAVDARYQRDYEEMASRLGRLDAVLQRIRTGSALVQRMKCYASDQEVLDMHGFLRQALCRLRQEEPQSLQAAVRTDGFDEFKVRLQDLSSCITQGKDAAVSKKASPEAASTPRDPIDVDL

arsenic trioxide [ATO]
cell viability, EBV positive MUTU cells [1]: dose and time dependent suppression of cell viability | percentage of annexin V positive cells ([2]; control 21%): 58% | percentage of viable cells ([2]; EBV positive cells, control 67%): 35% | PML NB immunofluorescence signal ([3]; 12.5 nM ATO): complete loss; also recorded: below that of baseline untreated uninfected cells | ATO concentration resulting in reduction of PML NB size, number and fluorescent intensity ([3]; EBV infected A549 cells, 'as low as'): 6.25 nM | PML NB immunofluorescence intensity, dose response ([3]; varying doses of ATO): diminished by exposure to ATO in a dose dependent manner | cells staining positively for Zta ([4]; day 8, 10 nM ATO plus or minus GCV): 100% | number of Zta positive cells, dose response ([4]; varying doses of ATO, 72 hours (3 days), two separate EBV infections of A549 cells): increase in the number of Zta positive cells in an ATO dose responsive manner; also recorded: increases the number of Zta positive cells in a dose dependent manner | Zta expression (Western blot), EBV-negative MUTU cells [5]: absent; also recorded: no Zta expression | relative expression of EBNA Cp mRNA [6]: drops dramatically | Zta expression (Western blot), EBV positive MUTU cells [7]: markedly enhanced reactivation of the EBV lytic cycle; also recorded: show Zta expression | Zta expression in tumor explant tissue [8]: large pockets of reactivation | ATO dose inducing upregulation of ZTA mRNA ([9]; 48 hours, 'as low as'): 1.25 nM | Zta mRNA expression compared to control ([9]; 4 days, 1 nM ATO and/or 40 μM GCV): increased | viable cells after a third day of treatment compared with two days [10]: barely changed
